“And” between values parts separate entries of the source, which are not always exact repeats. Equal values may be shown once.
Tested on: 935938-334-R-J1-PDC complex spheroid viability
Assay: Anticancer human tumor 935938-334-R-J1-PDC patient-derived small intestine adenocarcinoma cell line growth inhibition [POLQ]
Conditions: for viability, T/C: stronger effect = lower value
Description: Multicellular complex tumor spheroid response to Polymerase (POL) inhibitors (novobiocin, ART-558, RP6685) in combination with a variety of drugs and investigational agents in selected tumor cell lines
The POL inhibitors (novobiocin, ART-558, and RP6685) were evaluated both individually and in combination with standard of care and investigational anticancer small molecules within a complex spheroid model of solid tumors. . Complex spheroids include a stromal component modeled by human endothelial cells (HUVEC) and fibroblasts modeled by human mesenchymal stem cells (MSCs). The concentration ranges selected for each drug and investigational agent were based upon clinically achievable concentrations if the clinical Cmax of the agent was known.
Compounds. The drugs and investigational agents: novobiocin (NSC847541), ART-558 (NSC835418), RP-6685 (NSC848927), peposertib (NSC802822), ceralasertib (NSC780249), elimusertib (NSC800525), camonsertib (NSC841442), AZD-1390 (NSC803789), olaparib (NSC753686), talazoparib (NSC767125), rucaparib (NSC756644), sotorasib (NSC818433), MRTX-1133 (NSC836407), SN-38 (NSC673596), topotecan (NSC609699), epotoside (NSC141540), doxorubicin (NSC123127), gemcitabine (NSC613327), 5-fluorouracil (NSC19893), paclitaxel (NSC125973), vemurafenib (NSC761431), MSA-2 (NSC828583), SN-011 (NSC837082), adavosertib (NSC754352), prexasertib (NSC758257), carboplatin (NSC241240) and oxaliplatin (NSC266046), were obtained from the National Cancer Institute (NCI) Developmental Therapeutics Program Chemical Repository (21). The FDA-approved anticancer drug set is available from the Developmental Therapeutics Program at https://dtp.cancer.gov/organization/dscb/obtaining/. […] The stock solutions were prepared in dimethyl sulfoxide (DMSO, Sigma-Aldrich, St. Louis, MO, cat. D2650), except for the platinum compounds which were prepared in saline (Quality Biological, Gaithersburg, MD, cat. 114-055-101), at 800-fold the tested concentration and stored at -70 degrees C prior to their use. All drugs and investigational agents were tested over a range starting from a high concentration at or near the clinical Cmax and decreasing in half-log increments. If the clinical Cmax for an agent had not been determined, the highest concentration tested was 10 microM, except for SN-38, which was tested at a high concentration of 1 microM.
Cell Culture. All cells were maintained in an incubator at 37 degrees C and 5% CO2 with 95% humidity. The PDC lines were cultured according to standard operating procedures established by the NCI PDMR (https://pdmr.cancer.gov). Table 3 of the manuscript, lists the cell lines along with the number of the three cell types plated to form the mct-spheroids and media for tumor cell growth. After thawing, all PDC lines, except 997537-175-T-J1-PDC and 415267-285-R-J2-PDC, were cultured in Matrigel-coated flasks prepared with a working solution of 1X Ham's F-12 nutrient mix, without supplementation (Thermo Fisher Scientific, cat. 11765054), 100 U/mL penicillin-streptomycin (Thermo Fisher Scientific, cat. 15140122), and 2.5% Matrigel (Corning Inc., Corning, NY, cat. 354248) for the first three passages. The two PDC lines 997537-175-T-J1-PDC and 415267-285-R-J2-PDC were cultured on uncoated flasks. The 857933-349-R-J2-PDC line was cultured in 6C/Colon 1B media containing advanced DMEM/F-12 (Thermo Fisher Scientific, cat. 12634028), 10 mM HEPES (Thermo Fisher Scientific, cat. 15630080), 1X GlutaMAX supplement (Thermo Fisher Scientific, cat. 35050061), 0.1 mg/mL primocin (InvivoGen, San Diego, CA, cat. ant-pm-2), 10% defined fetal bovine serum, heat inactivated (HyClone Laboratories Inc., Logan, UT, cat. SH30070.03HI), 50% L-WRN conditioned media (ATCC, cat. CRL-3276), 1.25 mM N-Acetyl-L-cysteine (Sigma-Aldrich, cat. A9165), 10 mM nicotinamide (Sigma-Aldrich, cat. N0636), 1X B-27 supplement (Thermo Fisher Scientific, cat. 17504044), 1X N-2 supplement (Thermo Fisher Scientific, cat. […]

[1] = curve of first compound, second compound 0.0316 µM
[2] = curve of first compound, second compound 0.1 µM
[3] = curve of first compound, second compound 0.316 µM
[4] = curve of first compound, second compound 1 µM
[5] = curve of first compound, second compound 3.16 µM
[6] = curve of first compound, second compound 10 µM
[7] = second compound 0.0316 µM, first compound 0.0316 µM
[8] = second compound 0.0316 µM, first compound 0.1 µM
[9] = second compound 0.0316 µM, first compound 0.316 µM
[10] = second compound 0.0316 µM, first compound 1 µM
[11] = second compound 0.1 µM, first compound 0.0316 µM
[12] = second compound 0.1 µM, first compound 0.1 µM
[13] = second compound 0.1 µM, first compound 0.316 µM
[14] = second compound 0.1 µM, first compound 1 µM
[15] = second compound 0.316 µM, first compound 0.0316 µM
[16] = second compound 0.316 µM, first compound 0.1 µM
[17] = second compound 0.316 µM, first compound 0.316 µM
[18] = second compound 0.316 µM, first compound 1 µM
[19] = second compound 1 µM, first compound 0.0316 µM
[20] = second compound 1 µM, first compound 0.1 µM
[21] = second compound 1 µM, first compound 0.316 µM
[22] = second compound 1 µM, first compound 1 µM
[23] = second compound 3.16 µM, first compound 0.0316 µM
[24] = second compound 3.16 µM, first compound 0.1 µM
[25] = second compound 3.16 µM, first compound 0.316 µM
[26] = second compound 3.16 µM, first compound 1 µM
[27] = second compound 10 µM, first compound 0.0316 µM
[28] = second compound 10 µM, first compound 0.1 µM
[29] = second compound 10 µM, first compound 0.316 µM
[30] = second compound 10 µM, first compound 1 µM
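Note: spheroids exposed to drugs for seven days before viability read.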
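Throughout, for viability, T/C: 100% = DMSO vehicle control wells.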

## C=CCn1c(=O)c2cnc(Nc3ccc(N4CCN(C)CC4)cc3)nc2n1-c1cccc(C(C)(C)O)n1 + Cc1cccc(N(C)C(=O)C2C(O)CCN2c2nc(C)cc(C(F)(F)F)c2C#N)c1
[1]
  IC50: 0.591 µM
[2]
  IC50: 0.5 µM
[3]
  IC50: 0.513 µM
[4]
  IC50: 0.669 µM
[5]
  IC50: 0.595 µM
[6]
  IC50: 0.516 µM
Second compound 0.0316 µM, first compound 0.00316 µM
  viability, T/C: 86.3%
Second compound 0.0316 µM, first compound 0.01 µM
  viability, T/C: 67.3%
[7]
  viability, T/C: 80%
[8]
  viability, T/C: 85.8%
[9]
  viability, T/C: 77.8%
[10]
  viability, T/C: 26.6%
Second compound 0.1 µM, first compound 0.00316 µM
  viability, T/C: 93%
Second compound 0.1 µM, first compound 0.01 µM
  viability, T/C: 87.5%
[11]
  viability, T/C: 97%
[12]
  viability, T/C: 107%
[13]
  viability, T/C: 66%
[14]
  viability, T/C: 25.7%
Second compound 0.316 µM, first compound 0.00316 µM
  viability, T/C: 90.4%
Second compound 0.316 µM, first compound 0.01 µM
  viability, T/C: 110%
[15]
  viability, T/C: 83.6%
[16]
  viability, T/C: 95.9%
[17]
  viability, T/C: 67.8%
[18]
  viability, T/C: 25.5%
Second compound 1 µM, first compound 0.00316 µM
  viability, T/C: 94.8%
Second compound 1 µM, first compound 0.01 µM
  viability, T/C: 98.6%
[19]
  viability, T/C: 106%
[20]
  viability, T/C: 104%
[21]
  viability, T/C: 92.1%
[22]
  viability, T/C: 27%
Second compound 3.16 µM, first compound 0.00316 µM
  viability, T/C: 69.9%
Second compound 3.16 µM, first compound 0.01 µM
  viability, T/C: 112%
[23]
  viability, T/C: 74.9%
[24]
  viability, T/C: 87.7%
[25]
  viability, T/C: 78.4%
[26]
  viability, T/C: 26.2%
Second compound 10 µM, first compound 0.00316 µM
  viability, T/C: 103%
Second compound 10 µM, first compound 0.01 µM
  viability, T/C: 101%
[27]
  viability, T/C: 88.7%
[28]
  viability, T/C: 96.4%
[29]
  viability, T/C: 72.2%
[30]
  viability, T/C: 19.6%

## CC1COCCN1c1cc(C2(O)CC3CCC(C2)O3)c2cnn(-c3ccn[nH]3)c2n1 (stereo unspecified)
Compound 0.0316 µM
  viability, T/C: 84.1% and 74.7% and 60.4%
Compound 0.1 µM
  viability, T/C: 62.5% and 69.8% and 72.1%
Compound 0.316 µM
  viability, T/C: 45.6% and 32.8% and 34.3%
Compound 1 µM
  viability, T/C: 24.3% and 23.7% and 22.5%
Compound 3.16 µM
  viability, T/C: 15% and 14% and 18.6%
Compound 10 µM
  viability, T/C: 12% and 10.3% (2×)
Curve of compound
  IC50: 0.216 µM and 0.187 µM and 0.18 µM

## CCc1cc2c(N3CCc4c(cc(Cn5ccnc5)cc4-c4cn(C)nc4C(F)(F)F)C3=O)cc(C)nc2c(OC)n1 + COC1C(OC(N)=O)C(O)C(Oc2ccc3c(O)c(NC(=O)c4ccc(O)c(CC=C(C)C)c4)c(=O)oc3c2C)OC1(C)C
[1]
  IC50: > 10 µM
[2]
  IC50: > 10 µM
[3]
  IC50: > 10 µM
[4]
  IC50: > 10 µM
[5]
  IC50: > 10 µM
[6]
  IC50: > 10 µM
[7]
  viability, T/C: 83.6%
[8]
  viability, T/C: 81.1%
[9]
  viability, T/C: 77.7%
[10]
  viability, T/C: 72.9%
Second compound 0.0316 µM, first compound 3.16 µM
  viability, T/C: 64.6%
Second compound 0.0316 µM, first compound 10 µM
  viability, T/C: 64.8%
[11]
  viability, T/C: 80.8%
[12]
  viability, T/C: 83.1%
[13]
  viability, T/C: 74.1%
[14]
  viability, T/C: 62.8%
Second compound 0.1 µM, first compound 3.16 µM
  viability, T/C: 70.4%
Second compound 0.1 µM, first compound 10 µM
  viability, T/C: 64%
[15]
  viability, T/C: 74.6%
[16]
  viability, T/C: 72.5%
[17]
  viability, T/C: 75.5%
[18]
  viability, T/C: 70.5%
Second compound 0.316 µM, first compound 3.16 µM
  viability, T/C: 75.4%
Second compound 0.316 µM, first compound 10 µM
  viability, T/C: 60%
[19]
  viability, T/C: 64.7%
[20]
  viability, T/C: 72%
[21]
  viability, T/C: 90.6%
[22]
  viability, T/C: 88.9%
Second compound 1 µM, first compound 3.16 µM
  viability, T/C: 73.9%
Second compound 1 µM, first compound 10 µM
  viability, T/C: 71.3%
[23]
  viability, T/C: 64.4%
[24]
  viability, T/C: 73.6%
[25]
  viability, T/C: 73%
[26]
  viability, T/C: 61.5%
Second compound 3.16 µM, first compound 3.16 µM
  viability, T/C: 74.7%
Second compound 3.16 µM, first compound 10 µM
  viability, T/C: 56.4%
[27]
  viability, T/C: 85.7%
[28]
  viability, T/C: 68.8%
[29]
  viability, T/C: 71.8%
[30]
  viability, T/C: 71.5%
Second compound 10 µM, first compound 3.16 µM
  viability, T/C: 78.5%
Second compound 10 µM, first compound 10 µM
  viability, T/C: 66.7%
